Laboratory results taken from the supplement of paper PMC11061612.

What was measured:
Assay in all cases: combination Emax (second highest fraction inhibited in the dose matrix, 72 h); higher = more inhibition; extreme values may be limits of the assay
NCI-H2795 (Mesothelioma) = tested on: NCI-H2795 (Mesothelioma)
Summary of the method: (§1)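 Cell lines grown in DMEM/F12 or RPMI with 10% FBS were plated in 1536-well plates and held 24 hours at 37°C, 5% CO2 before 72 hours of exposure to two-drug dose matrices, with DMSO typically at 0.2%. CellTiter-Glo 2.0 luminescence gave viability, which was converted to inhibition. Vehicle wells were set to 0 and blank wells to 1. Combination Emax is the second-highest inhibition in the matrix, and Bliss excess is the observed combination effect minus the expected EA + EB − EA·EB, where EA and EB are the single-agent effects.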

[1] = tested on: K5 (Thyroid Gland Carcinoma)
Summary of the method: as §1

NCI-H2461 (Mesothelioma) = tested on: NCI-H2461 (Mesothelioma)
Summary of the method: as §1

[2] = tested on: LU-139 (Small Cell Lung Carcinoma)
Summary of the method: as §1

[3] = tested on: PCI-30 (Head and Neck Carcinoma)
Summary of the method: as §1

[4] = tested on: CTB-1 (B-Cell Non-Hodgkin's Lymphoma)
Summary of the method: as §1

[5] = tested on: CAL-54 (Kidney Carcinoma)
Summary of the method: as §1

[6] = tested on: SW626 (Colorectal Carcinoma)
Summary of the method: as §1

Row | SMILES | combination Emax (NCI-H2795 (Mesothelioma)) | combination Emax [1] | combination Emax (NCI-H2461 (Mesothelioma)) | combination Emax [2] | combination Emax [3] | combination Emax [4] | combination Emax [5] | combination Emax [6]
1 | CC1(C)CCC(CN2CCN(c3ccc(C(=O)NS(=O)(=O)c4ccc(NCC5CCOCC5)c([N+](=O)[O-])c4)c(Oc4cnc5[nH]ccc5c4)c3)CC2)=C(c2ccc(Cl)cc2)C1 [Venetoclax] + C1CN(CCC1(C(=O)N[C@@H](CCO)C2=CC=C(C=C2)Cl)N)C3=NC=NC4=C3C=CN4 [Capivasertib] (first compound max 1 µM, 7x7, partner max 3 µM) | 0.375 | 0.546 | 0.528 | 0.31 | 0.252 | 0.429 | 0.325 | 0.161
2 | CC1(C)CCC(CN2CCN(c3ccc(C(=O)NS(=O)(=O)c4ccc(NCC5CCOCC5)c([N+](=O)[O-])c4)c(Oc4cnc5[nH]ccc5c4)c3)CC2)=C(c2ccc(Cl)cc2)C1 [Venetoclax] + C=CCn1c(=O)c2cnc(Nc3ccc(N4CCN(C)CC4)cc3)nc2n1-c1cccc(C(C)(C)O)n1 [AZD1775] (first compound max 1 µM, partner max 1 µM) | 0.658 | 0.523 | 0.731 | 0.831 | 0.736 | 0.897 | 0.795 | 0.647
3 | CC1(C)CCC(CN2CCN(c3ccc(C(=O)NS(=O)(=O)c4ccc(NCC5CCOCC5)c([N+](=O)[O-])c4)c(Oc4cnc5[nH]ccc5c4)c3)CC2)=C(c2ccc(Cl)cc2)C1 [Venetoclax] + CCN(CCO)CCCOc1ccc2c(Nc3cc(CC(=O)Nc4cccc(F)c4)[nH]n3)ncnc2c1 [AZD2811] (first compound max 1 µM, 7x7, partner max 1 µM) | 0.422 | 0.413 | 0.422 | 0.668 | 0.229 | 0.59 | 0.251 | 0.212
4 | CC1(C)CCC(CN2CCN(c3ccc(C(=O)NS(=O)(=O)c4ccc(NCC5CCOCC5)c([N+](=O)[O-])c4)c(Oc4cnc5[nH]ccc5c4)c3)CC2)=C(c2ccc(Cl)cc2)C1 [Venetoclax] + CN(C)CCCOc1ccc(-c2ccc3ncc4c(c3c2)n(C2CCOCC2)c(=O)n4C)cn1 [AZD0156] (first compound max 1 µM, 7x7, partner max 1 µM) | 0.46 | 0.374 | 0.525 | 0.374 | 0.149 | 0.242 | 0.239 | 0.111
5 | CC1(C)CCC(CN2CCN(c3ccc(C(=O)NS(=O)(=O)c4ccc(NCC5CCOCC5)c([N+](=O)[O-])c4)c(Oc4cnc5[nH]ccc5c4)c3)CC2)=C(c2ccc(Cl)cc2)C1 [Venetoclax] + COc1cc(Nc2ncc3c(n2)-c2ccc(Cl)cc2C(c2c(F)cccc2OC)=NC3)ccc1C(=O)O [Alisertib] (first compound max 1 µM, 7x7, partner max 10 µM) | 0.936 | 0.841 | 0.459 | 0.738 | 0.218 | 0.75 | 0.523 | 0.314
6 | CC1(C)CCC(CN2CCN(c3ccc(C(=O)NS(=O)(=O)c4ccc(NCC5CCOCC5)c([N+](=O)[O-])c4)c(Oc4cnc5[nH]ccc5c4)c3)CC2)=C(c2ccc(Cl)cc2)C1 [Venetoclax] + C[C@@H]1COCCN1C2=NC(=NC(=C2)C3(CC3)[S@](=N)(=O)C)C4=C5C=CNC5=NC=C4 [AZD6738] (first compound max 1 µM, 7x7, partner max 10 µM) | 0.622 | 0.616 | 0.725 | 0.636 | 0.69 | 0.836 | 0.768 | 0.638
7 | CC1(C)CCC(CN2CCN(c3ccc(C(=O)NS(=O)(=O)c4ccc(NCC5CCOCC5)c([N+](=O)[O-])c4)c(Oc4cnc5[nH]ccc5c4)c3)CC2)=C(c2ccc(Cl)cc2)C1 [Venetoclax] + C[C@@H](Nc1cc(F)cc(F)c1)c1cc(C(=O)N(C)C)cc2c(=O)cc(N3CCOCC3)oc12 [AZD8186] (first compound max 1 µM, 7x7, partner max 3 µM) | 0.441 | 0.735 | 0.447 | 0.279 | 0.19 | 0.288 | 0.533 | 0.127
8 | CC1(C)CCC(CN2CCN(c3ccc(C(=O)NS(=O)(=O)c4ccc(NCC5CCOCC5)c([N+](=O)[O-])c4)c(Oc4cnc5[nH]ccc5c4)c3)CC2)=C(c2ccc(Cl)cc2)C1 [Venetoclax] + Cc1cc2ncnn2cc1Nc1ncc2c(n1)n(C1CCOCC1)c(=O)n2C [AZD7648] (first compound max 1 µM, 7x7, partner max 10 µM) | 0.471 | 0.394 | 0.528 | 0.439 | 0.224 | 0.358 | 0.256 | 0.136
9 | CC1(C)CCC(CN2CCN(c3ccc(C(=O)NS(=O)(=O)c4ccc(NCC5CCOCC5)c([N+](=O)[O-])c4)c(Oc4cnc5[nH]ccc5c4)c3)CC2)=C(c2ccc(Cl)cc2)C1 [Venetoclax] + Cn1cnc2c(F)c(Nc3ccc(Br)cc3Cl)c(C(=O)NOCCO)cc21 [Selumetinib] (first compound max 1 µM, 7x7, partner max 3 µM) | 0.562 | 0.742 | 0.444 | 0.307 | 0.206 | 0.105 | 0.205 | 0.507
